Measurements reported in patent US5416090A, “Method of treating inflammation” (priority 1992, dated 1995).
Read-outs that look alike come from different tables or passages of the source.

What was measured:
[1] = test system: delayed type hypersensitivity (picryl chloride induced foot pad swelling); test: Murine delayed type hypersensitivity (DTH) response, picryl chloride; assay type: in vivo, mouse (Balb/c); conditions: for inhibition of DTH response: FIG. 8 legend
Protocol: The activity of ergoline compounds was also evaluated in a murine delayed-type hypersensitivity (DTH) assay. The DTH assay was performed in substantial accordance with the method set forth in Example 1. Briefly, mice were sensitized by topical administration of picryl chloride on day 1 of the assay. On day 4 paw size was determined and recorded and the paw was then challenged with picryl chloride. The challenged paw was remeasured on day 5 to quantitate the DTH response via the increase in paw size.
(§1) Male Balb/c mice (Charles River) weighing 20 to 25 g were used in all DTH studies. When adrenalectomized studies were carried out, sham surgery and adrenalectomized mice were obtained from the vendor. Animals were maintained on a 12:12 hour light:dark cycle. Mice were allowed ad lib access for food (Purina lab chow) and water (normal saline for adrenalectomized animals).
(§2) A DTH response was assessed by measuring the degree of rear foot pad swelling induced by picryl chloride. On day 0, mice were sensitized with 100 μl of 5% picryl chloride (in ethanol), which was applied to a shaved abdomen. Negative control groups were shaved but not sensitized. On day 3, mice were anesthetized with methoxyflurane, and the baseline rear foot pad thickness was measured with a micrometer (Mitutoyo) in μ, and was recorded in duplicate. Fifty μl of picryl chloride was then applied to each pad with a pipet (Rainen) while the animal was unconscious. The negative controls also received picryl chloride at this point to control for primary irritancy. Twenty-four hours later, the mice were sacrificed by CO2 asphyxiation and each rear foot pad was again measured in duplicate, and any evidence of foot pad swelling was calculated. The mean rear foot swelling change of both pads for each animal from days 3 to 4 was used as the index of immune function in the DTH assay.
(§3) Unless otherwise stated all animals were given four subcutaneous doses of test compound just prior to picryl chloride sensitization on day 0, on day 1 and day 2, and just prior to picryl chloride challenge on day 3. In a few experiments, compounds were administered via oral or intraperitoneal routes. All drugs were delivered as suspensions in 1% carboxy-methylcellulose (also contained 0.8% NaCl, 1% polysorbate-80, 1.4% benzyl alcohol). Carboxymethyl-cellulose (1%) was used in control injections.

[2] = test system: inflammatory models; conditions: cited from earlier work
[3] = test system: D-2 dopamine; conditions: background; cited from earlier work
[4] = test system: carrageenan induced paw swelling; test: Carrageenan edema model (acute paw inflammation); assay type: in vivo, rat (Lewis)
[5] = test system: α adrenergic receptors; conditions: background; cited from earlier work
[6] = test system: Parkinsonism; conditions: background; cited from earlier work
[7] = test system: 5-HT induced paw swelling; test: Serotonin (5-HT) induced acute paw inflammation; assay type: in vivo, rat (Lewis); conditions: FIG. 2
Protocol: In one such model, the acute paw inflammation model, rats were treated with test compounds one hour prior to plantar injection of a 50 μl volume of a phlogistic. Animals were sacrificed and paw weights were determined at a prescribed time interval following the plantar injections. When 1% carrageenan was used as the phlogistic, the time interval between injection and sacrifice was 3 hours. When serotonin (5-hydroxytryptamine (5-HT)) was used, as the phlogistic agent the time interval was one hour. When substance P was used, the time interval was 30 minutes. The acute paw inflammation model is described in more detail in Example 3.
Male Lewis rats (Charles River or Harlan Sprague Dawley) weighing 180 to 250 g were used in all acute inflammatory studies. Animals were maintained on a 12:12 hour light:dark cycle and were allowed ad lib access for food (Purina lab chow) and water. Experimental groups consisted of 5 or 6 rats.
Acute paw swelling was induced by the intraplantar injection of phlogistic agents into the left hind paw, with the uninjected right hind paw serving as the comparative control. One hour after dosing with test compound, 50 μl of serotonin (Sigma; 0.005 to 0.2 mg/ml in normal saline) or substance P (Sigma; 0.01 or 0.05 mg/ml in 10% thiorphan in normal saline) or carrageenan (Marine Colloidal or Sigma Type IV; 1% in normal saline) were injected under the skin of the left hind paw, while the animal was restrained in a plastic cone. Negative controls were given 50 μl intradermal injections of normal saline (serotonin or carrageenan assays) or 10% thiorphan (substance P assays) into the left hind paw. One hour following injection of serotonin, or 30 minutes following injection of substance P, or 180 minutes following injection of carrageenan, the animals were sacrificed by CO2 asphyxiation. The right and left hind paws were cut just proximal to the tibiotarsal joint and weighed. The difference in weight between an individual animal's left and right paws were used as an indicator of tissue swelling.
As indicated above, test compounds are administered as a one hour pretreatment. In one series of experiments, 24 hour and 48 hour drug pretreatment periods were used. Test compounds were dosed intraperitoneally as a suspension in 1% carboxymethylcellulose.

[8] = test system: lipoidal amine induced arthritis; test: Lipoidal amine induced polyarthritis (hind paw volume and weight); assay type: in vivo, rat (Lewis); conditions: Rattus norvegicus
Protocol: Lipoidal amine induced polyarthritis is an animal arthritis model originally described by Chang, Y., et al. in Arthritis and Rheumatism 23:62-71 (1980). The lipoidal amine induced polyarthritis results from injection of N,N-dioctadecyl-N^1,N-bis(2-hydroxyethyl) propanediamine (7.5 mg/kg Lewis rat (220-225 g)), which is suspended in oil, intradermally at the base of the tail.

[9] = test system: corticosterone; test: Serum/plasma corticosterone levels in mice; assay type: in vivo, mouse (Balb/C); conditions: FIG. 10 Panel A; 1 and 3 hr. following injection
Source text: Dopamine agonists are known to elevate circulating glucocorticoid levels, via activation of the hypothalamo-pituitary-adrenal axis. […] Since glucocorticoids are potential endogenous anti-inflammatory substances, this action is one potential mechanism for the anti-inflammatory effect of the ergolines. However, in subsequent inflammation studies, the anti-inflammatory effects of D-1-isopropyl-6-n-propyl-8β-methylthiomethyl ergoline were retained in mice lacking an adrenal gland and therefore devoid of the increase in circulating corticosterone. (FIG. 10B)
Both Balb/C mice (male, approximately 20 g, Charles Rivers) and Lewis rats (male, approximately 200 g, Charles River or Harlan Sprague Dawley) were used in neuroendocrine studies. Animals were maintained on a 12:12 hour light:dark cycle and were allowed ad lib access for food (Purina lab chow) and water. Experimental groups consisted of 6 to 8 animals.
After dosing with test compounds, animals were sacrificed by decapitation at 1, 3, 8 or 24 hour intervals. Trunk blood was collected, allowed to clot and serum obtained after centrifugation (3000 rpm for 15 min.). Serum was aliquoted and stored at -70° C. for subsequent radioimmunoassays. Serum prolactin was determined by radioimmunoassay. Serum corticosterone levels were determined with a kit designed for such determinations and obtained from ICN.

[10] = test system: dopamine receptor; test: Affinity at the dopamine receptor; assay type: binding
[11] = test system: dopamine receptor (DTH response); test: Reversal of DTH inhibition by dopamine receptor antagonists; assay type: in vivo, mouse
Protocol: as §1, §2, §3

[12] = Table 2, single oral dose 0.1 mg/kg
[13] = Table 2, single oral dose 0.3 mg/kg
[14] = Table 2, single oral dose 1.0 mg/kg
[15] = Table 2, single oral dose 3.0 mg/kg
[16] = Table 1, single oral dose 0.3 mg/kg
[17] = Table 1, single oral dose 1.0 mg/kg
[18] = Table 1, single oral dose 3.0 mg/kg
[19] = Table 1, single oral dose 10.0 mg/kg
[20] = Table 2, single oral dose 0.01 mg/kg
[21] = Table 2, single oral dose 0.03 mg/kg
[22] = Table 1, single oral dose 30.0 mg/kg
[23] = Table 2, single oral dose 30.0 mg/kg

CCCN1CCC[C@H]2Cc3nc(N)sc3C[C@@H]21 (racemic) [Compound 6, trans-(±)-2-amino-5-n-propyl-4,4a,5,6,7,8,8a,9-octahydrothiazolo [4,5-g] quinoline]
reduction of paw swelling (DTH) ([1]; 10 mg/kg): statistically significant

CCCN1CCC[C@H]2Cc3nc(N)ncc3C[C@@H]21 (racemic) [Compound 8, trans-(±)-2-amino-6-n-propyl-5,5a,6,7,8,9,9a,10-octahydropyrimido[4,5-g] quinoline]
reduction of paw swelling (DTH) ([1]; 1 mg/kg): statistically significant decrease in inflammation | inhibition of DTH response [1]: lack of inhibition

CCCN1CCC[C@H]2Cc3nc(N)ccc3C[C@@H]21 (relative stereo) [Compound 7, trans-(±)-2-amino-6-propyl-5,5a,6,7,8,9,9a,10-octahydropyrido [2-3 g] quinoline]
reduction of paw swelling (DTH) ([1]; 10 mg/kg): statistically significant

CCCN1CC(CO)=C[C@H]2Cc3n[nH]cc3C[C@@H]21 (relative stereo) [Compound 9, 7-(5-n-propyl-trans-4,4a,5,6,8a,9-hexahydro-2H-pyrazolo[3,4-g)quinoline) methanol]
reduction of paw swelling (DTH) ([1]; 3 mg/kg): statistically significant | reduction of paw swelling (DTH) ([1]; 10 mg/kg): statistically significant | inhibition of DTH response [1]: inhibition

CC(C)CC1C(=O)N2CCCC2C2(O)OC(NC(=O)C3C=C4c5cccc6[nH]c(Br)c(c56)CC4N(C)C3)(C(C)C)C(=O)N12 (stereo not drawn) [Bromocriptine, α-bromo-ergocryptine]
basis of activity in inflammatory models of the literature [2]: due to immunosuppressive activity | D-2 dopamine agonist activity [3]: D-2 dopamine agonists | % Inhibition [4, 12]: 0% | Paw Weight Difference [4, 12]: 0.923 ± 0.039 g | % Inhibition [4, 13]: 0% | Paw Weight Difference [4, 13]: 0.937 ± 0.060 g | % Inhibition [4, 14]: 0% | Paw Weight Difference [4, 14]: 0.803 ± 0.046 g | % Inhibition [4, 15]: 0% | Paw Weight Difference [4, 15]: 0.931 ± 0.067 g | activity in the acute inflammation model ([4]; doses as high as 3 mg/kg, po): no activity | action at α adrenergic receptors [5]: act at α adrenergic receptors

CCCN1C[C@H](CSC)C[C@@H]2c3cccc4[nH]cc(c34)C[C@H]21 [Compound 2]
D-2 dopamine agonist activity [3]: D-2 dopamine agonists | effect on symptoms of Parkinsonism [6]: effective in the treatment of some symptoms of Parkinsonism | % Inhibition [4, 16]: 60% | Paw Weight Difference [4, 16]: 0.290 ± 0.028 g | % Inhibition [4, 17]: 60% | Paw Weight Difference [4, 17]: 0.295 ± 0.019 g | % Inhibition [4, 18]: 60% | Paw Weight Difference [4, 18]: 0.292 ± 0.017 g | % Inhibition [4, 19]: 60% | Paw Weight Difference [4, 19]: 0.293 ± 0.018 g | % Inhibition [4, 20]: 1% | Paw Weight Difference [4, 20]: 0.820 ± 0.033 g | % Inhibition [4, 21]: 0% | Paw Weight Difference [4, 21]: 1.009 ± 0.056 g | % Inhibition [4, 12]: 11% | Paw Weight Difference [4, 12]: 0.751 ± 0.045 g | % Inhibition [4, 13]: 63% | Paw Weight Difference [4, 13]: 0.313 ± 0.045 g | anti-inflammatory properties ([4]; Tables 1 and 2): significant anti-inflammatory properties | action at α adrenergic receptors [5]: act at α adrenergic receptors | reduction of paw swelling (DTH) ([1]; 1 mg/kg): significantly reduced paw swelling | reduction of paw swelling (DTH) ([1]; 3 mg/kg): significantly reduced paw swelling | reduction of paw swelling (DTH) ([1]; 10 mg/kg): significantly reduced paw swelling | effect on 5-HT induced paw swelling [7]: diminish 5-HT induced paw swelling | minimal effective dose ([8]; read-out: dosage giving statistically significant decrease in paw volume, FIG. 1 Panel A): ≥ 3 mg/kg | minimal effective dose ([8]; read-out: dosage giving statistically significant decrease in paw weight, FIG. 1 Panel B): ≥ 3 mg/kg

CCCN1C[C@H](CSC)C[C@@H]2c3cccc4[nH]nc(c34)C[C@H]21 [Compound 4, D-2-aza-6-n-propyl-8β-methylthiomethyl ergoline]
reduction of paw swelling (DTH) ([1]; 1 mg/kg): reduced paw swelling | reduction of paw swelling (DTH) ([1]; 3 mg/kg): statistically significant | reduction of paw swelling (DTH) ([1]; 10 mg/kg): statistically significant

CCCN1CC(CO)CC2Cc3n[nH]cc3CC21 (stereo not drawn) [Compound 10, 7-(5-n-propyl-trans-4,4a,5,6,7,8,8a, 9-Octahydro-2H-pyrazolo[3,4-g]quinoline) methanol]
reduction of paw swelling (DTH) ([1]; 3 mg/kg): statistically significant | reduction of paw swelling (DTH) ([1]; 10 mg/kg): statistically significant | effect on plasma corticosterone [9]: increase plasma cortiosterone

CCCCCN1C[C@H](CSC)C[C@@H]2c3cccc4[nH]cc(c34)C[C@H]21 [D-6-n-pentyl-8β-methylthiomethyl ergoline]
anti-inflammatory activity ([1]; FIGS. 7-9A studies): no anti-inflammatory activity | affinity at the dopamine receptor [10]: minimal affinity

O=c1[nH]c2ccccc2n1CCCN1CCC(n2c(=O)[nH]c3cc(Cl)ccc32)CC1 [Domperidone]
effect on anti-inflammatory activity of D-1-isopropyl-6-n-propyl-8β-methylthiomethyl ergoline ([11]; FIG. 9 Panel B): reversed the anti-inflammatory activity

CC(C(=O)O)c1cccc(Oc2ccccc2)c1 (stereo not drawn) [Fenoprofen]
effectiveness in suppressing inflammation compared with pergolide ([4]; 30 mg/kg): not as effective as pergolide | % Inhibition [4, 22]: 52% | Paw Weight Difference [4, 22]: 0.353 ± 0.043 g | % Inhibition [4, 23]: 55% | Paw Weight Difference [4, 23]: 0.379 ± 0.028 g

CCN1CCCC1CNC(=O)c1cc(S(N)(=O)=O)ccc1OC (stereo not drawn) [Sulpiride]
effect on inflammatory response in animals given 10 mg/kg of compound 10 ([11]; FIG. 9 Panel C, sulpiride 3, 10 and 30 mg/kg): partially restored the inflammatory response
